Experimental data taken from PubChem BioAssay (NCI).
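48-hour exposure; five concentrations; linearly interpolated endpoints. TGI marks complete inhibition of growth.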

Key:
Experiment in all cases: growth of human tumour cells (NCI), 48 h
786-0 renal = system: 786-0 renal
A498 renal = system: A498 renal
A549 NSCLC = system: A549 NSCLC
ACHN renal = system: ACHN renal
COLO 205 colon = system: COLO 205 colon
DLD-1 colon = system: DLD-1 colon
DMS 114 small cell lung = system: DMS 114 small cell lung
EKVX NSCLC = system: EKVX NSCLC
HCC-2998 colon = system: HCC-2998 colon
HCT-116 colon = system: HCT-116 colon
HCT-15 colon = system: HCT-15 colon
HL-60(TB) leukemia = system: HL-60(TB) leukemia
HOP-18 NSCLC = system: HOP-18 NSCLC
HOP-62 NSCLC = system: HOP-62 NSCLC
HOP-92 NSCLC = system: HOP-92 NSCLC
HT29 colon = system: HT29 colon
IGROV1 ovarian = system: IGROV1 ovarian
K-562 leukemia = system: K-562 leukemia
KM12 colon = system: KM12 colon
KM20L2 colon = system: KM20L2 colon
LOX IMVI melanoma = system: LOX IMVI melanoma
LXFL 529 NSCLC = system: LXFL 529 NSCLC
M19-MEL melanoma = system: M19-MEL melanoma
MALME-3M melanoma = system: MALME-3M melanoma
MOLT-4 leukemia = system: MOLT-4 leukemia
NCI-H226 lung = system: NCI-H226 lung
NCI-H23 lung = system: NCI-H23 lung
NCI-H460 lung = system: NCI-H460 lung
NCI-H522 lung = system: NCI-H522 lung
OVCAR-3 ovarian = system: OVCAR-3 ovarian
OVCAR-4 ovarian = system: OVCAR-4 ovarian
OVCAR-5 ovarian = system: OVCAR-5 ovarian
OVCAR-8 ovarian = system: OVCAR-8 ovarian
RPMI-8226 leukemia = system: RPMI-8226 leukemia
RXF 393 renal = system: RXF 393 renal
SF-268 CNS = system: SF-268 CNS
SF-295 CNS = system: SF-295 CNS
SF-539 CNS = system: SF-539 CNS
SK-MEL-2 melanoma = system: SK-MEL-2 melanoma
SN12C renal = system: SN12C renal
SNB-19 CNS = system: SNB-19 CNS
SNB-75 CNS = system: SNB-75 CNS
SR leukemia = system: SR leukemia
SW-620 colon = system: SW-620 colon
TK-10 renal = system: TK-10 renal
U251 CNS = system: U251 CNS
UACC-257 melanoma = system: UACC-257 melanoma
UO-31 renal = system: UO-31 renal
XF 498 CNS = system: XF 498 CNS
CAKI-1 renal = system: CAKI-1 renal
CCRF-CEM leukemia = system: CCRF-CEM leukemia
DMS 273 small cell lung = system: DMS 273 small cell lung
M14 melanoma = system: M14 melanoma
SK-MEL-28 melanoma = system: SK-MEL-28 melanoma
SK-MEL-5 melanoma = system: SK-MEL-5 melanoma
SK-OV-3 ovarian = system: SK-OV-3 ovarian
UACC-62 melanoma = system: UACC-62 melanoma

Cc1ccc(-n2c(=S)[nH]c3ccc(Br)cc3c2=O)cc1
TGI (786-0 renal): > 100 µM | TGI (A498 renal): > 100 µM | TGI (A549 NSCLC): > 100 µM | TGI (ACHN renal): > 100 µM | TGI (COLO 205 colon): > 100 µM | TGI (DLD-1 colon): > 100 µM | TGI (DMS 114 small cell lung): > 100 µM | TGI (EKVX NSCLC): > 100 µM | TGI (HCC-2998 colon): > 100 µM | TGI (HCT-116 colon): > 100 µM | TGI (HCT-15 colon): > 100 µM | TGI (HL-60(TB) leukemia): > 100 µM | TGI (HOP-18 NSCLC): > 100 µM | TGI (HOP-62 NSCLC): > 100 µM | TGI (HOP-92 NSCLC): > 100 µM | TGI (HT29 colon): > 100 µM | TGI (IGROV1 ovarian): > 100 µM | TGI (K-562 leukemia): > 100 µM | TGI (KM12 colon): > 100 µM | TGI (KM20L2 colon): > 100 µM | TGI (LOX IMVI melanoma): > 100 µM | TGI (LXFL 529 NSCLC): > 100 µM | TGI (M19-MEL melanoma): > 100 µM | TGI (MALME-3M melanoma): > 100 µM | TGI (MOLT-4 leukemia): > 100 µM | TGI (NCI-H226 lung): > 100 µM | TGI (NCI-H23 lung): > 100 µM | TGI (NCI-H460 lung): > 100 µM | TGI (NCI-H522 lung): > 100 µM | TGI (OVCAR-3 ovarian): > 100 µM | TGI (OVCAR-4 ovarian): > 100 µM | TGI (OVCAR-5 ovarian): > 100 µM | TGI (OVCAR-8 ovarian): > 100 µM | TGI (RPMI-8226 leukemia): > 100 µM | TGI (RXF 393 renal): > 100 µM | TGI (SF-268 CNS): > 100 µM | TGI (SF-295 CNS): > 100 µM | TGI (SF-539 CNS): > 100 µM | TGI (SK-MEL-2 melanoma): > 100 µM | TGI (SN12C renal): > 100 µM | TGI (SNB-19 CNS): > 100 µM | TGI (SNB-75 CNS): > 100 µM | TGI (SR leukemia): > 100 µM | TGI (SW-620 colon): > 100 µM | TGI (TK-10 renal): > 100 µM | TGI (U251 CNS): > 100 µM | TGI (UACC-257 melanoma): > 100 µM | TGI (UO-31 renal): > 100 µM | TGI (XF 498 CNS): > 100 µM

CC(C)(C)c1cc(COc2c3sc(=S)sc3c(OCc3cc(C(C)(C)C)cc(C(C)(C)C)c3)c3sc(=S)sc23)cc(C(C)(C)C)c1
TGI (786-0 renal): > 100 µM | TGI (A498 renal): > 100 µM | TGI (A549 NSCLC): > 100 µM | TGI (ACHN renal): > 100 µM | TGI (CAKI-1 renal): > 100 µM | TGI (CCRF-CEM leukemia): > 100 µM | TGI (COLO 205 colon): > 100 µM | TGI (DLD-1 colon): > 100 µM | TGI (DMS 273 small cell lung): > 100 µM | TGI (EKVX NSCLC): > 100 µM | TGI (HCC-2998 colon): > 100 µM | TGI (HCT-116 colon): > 100 µM | TGI (HCT-15 colon): > 100 µM | TGI (HL-60(TB) leukemia): > 100 µM | TGI (HOP-18 NSCLC): > 100 µM | TGI (HOP-62 NSCLC): > 100 µM | TGI (HT29 colon): > 100 µM | TGI (IGROV1 ovarian): > 100 µM | TGI (K-562 leukemia): > 100 µM | TGI (KM20L2 colon): > 100 µM | TGI (LOX IMVI melanoma): > 100 µM | TGI (LXFL 529 NSCLC): > 100 µM | TGI (M14 melanoma): > 100 µM | TGI (M19-MEL melanoma): > 100 µM | TGI (MOLT-4 leukemia): > 100 µM | TGI (NCI-H23 lung): > 100 µM | TGI (NCI-H460 lung): > 100 µM | TGI (OVCAR-3 ovarian): > 100 µM | TGI (OVCAR-4 ovarian): > 100 µM | TGI (OVCAR-8 ovarian): > 100 µM | TGI (RPMI-8226 leukemia): > 100 µM | TGI (RXF 393 renal): > 100 µM | TGI (SF-295 CNS): > 100 µM | TGI (SF-539 CNS): > 100 µM | TGI (SK-MEL-28 melanoma): > 100 µM | TGI (SK-MEL-5 melanoma): > 100 µM | TGI (SK-OV-3 ovarian): > 100 µM | TGI (SN12C renal): > 100 µM | TGI (SNB-19 CNS): > 100 µM | TGI (SNB-75 CNS): > 100 µM | TGI (SW-620 colon): > 100 µM | TGI (TK-10 renal): > 100 µM | TGI (U251 CNS): > 100 µM | TGI (UACC-257 melanoma): > 100 µM | TGI (UACC-62 melanoma): > 100 µM | TGI (XF 498 CNS): > 100 µM

C/C=C/CC(S(=O)(=O)c1ccccc1)S(=O)(=O)c1ccccc1
TGI (A498 renal): > 100 µM | TGI (A549 NSCLC): > 100 µM | TGI (ACHN renal): > 100 µM | TGI (CCRF-CEM leukemia): > 100 µM | TGI (COLO 205 colon): > 100 µM | TGI (DLD-1 colon): > 100 µM | TGI (DMS 114 small cell lung): 81.8 µM | TGI (DMS 273 small cell lung): > 100 µM | TGI (EKVX NSCLC): > 100 µM | TGI (HCC-2998 colon): > 100 µM | TGI (HCT-116 colon): > 100 µM | TGI (HCT-15 colon): > 100 µM | TGI (HL-60(TB) leukemia): > 100 µM | TGI (HOP-18 NSCLC): > 100 µM | TGI (HOP-62 NSCLC): > 100 µM | TGI (HOP-92 NSCLC): > 100 µM | TGI (HT29 colon): > 100 µM | TGI (IGROV1 ovarian): > 100 µM | TGI (K-562 leukemia): > 100 µM | TGI (KM12 colon): > 100 µM | TGI (KM20L2 colon): > 100 µM | TGI (LOX IMVI melanoma): > 100 µM | TGI (M14 melanoma): > 100 µM | TGI (MOLT-4 leukemia): > 100 µM | TGI (NCI-H226 lung): > 100 µM | TGI (NCI-H23 lung): > 100 µM | TGI (NCI-H460 lung): > 100 µM | TGI (NCI-H522 lung): > 100 µM | TGI (OVCAR-3 ovarian): > 100 µM | TGI (OVCAR-4 ovarian): > 100 µM | TGI (OVCAR-5 ovarian): > 100 µM | TGI (OVCAR-8 ovarian): > 100 µM | TGI (RPMI-8226 leukemia): > 100 µM | TGI (RXF 393 renal): > 100 µM | TGI (SF-295 CNS): > 100 µM | TGI (SF-539 CNS): > 100 µM | TGI (SK-MEL-2 melanoma): > 100 µM | TGI (SK-MEL-28 melanoma): > 100 µM | TGI (SK-MEL-5 melanoma): > 100 µM | TGI (SK-OV-3 ovarian): > 100 µM | TGI (SN12C renal): > 100 µM | TGI (SNB-19 CNS): > 100 µM | TGI (SNB-75 CNS): > 100 µM | TGI (SR leukemia): > 100 µM | TGI (SW-620 colon): > 100 µM | TGI (TK-10 renal): > 100 µM | TGI (U251 CNS): > 100 µM | TGI (UACC-257 melanoma): > 100 µM | TGI (UACC-62 melanoma): > 100 µM | TGI (UO-31 renal): > 100 µM | TGI (XF 498 CNS): > 100 µM
